Measurements published in patent publication US11553718B2, “Mic reduction with lithium ions” (priority 2014, dated 2023).

Key:
[1] = tested on: rGDA/IT (rGDA-IT) strain; assay: MIC determination in CaCO3 slurry with or without lithium ions; format: cell-based, Pseudomonas mendocina; settings: Li^+ 197 mM (1380 ppm), Li2CO3
Method: (§1) When not otherwise indicated, the quoted bacterial counts (values are in cfu/plate) in the Tables here below are determined after 2 days following plate-out and incubation at 30° C. The counting method was as follows. The aqueous preparations were stirred well with a cotton swap (e.g. Applimed SA, No. 1102245); the excess aqueous preparation was removed by dipping it gently to the side of the aqueous preparation container, leaving approximately 200 mg of aqueous preparation on the swap. […] TSA plates were then incubated for 48 h at 30° C. Colony forming units (cfu) were then counted and reported as cfu/plate. Counts from 100 to 999 cfu per plate are reported as ≥100 cfu/plate. Counts of 1000 cfu and above per plate are reported as ≥1000 cfu/plate. Yeast and moulds were counted as described for bacteria with the following exceptions, a) Sabouraud Dextrose Agar (SDA) containing Chloramphenicol (e.g. heipha Dr. Miller GmbH, No. 1460030020) were used instead of TSA, b) SDA plates were incubated at 25° for 5 days and c) cfu were counted and reported after 48 h and 5 days of incubation. Yeast and moulds counts from 20 to 99 cfu per plate are reported as […]. Yeast and moulds counts of 100 cfu and above per plate are reported as >100 cfu/plate.
(§2) For determining the MIC, the tested microorganism, i.e. the strain of bacteria and/or strain of yeast and/or strain of mould, were freshly grown until the end of the logarithmic growth phase according to the requirements of the individual species to a density of approximately 10^7-10^9 cells/ml.
(§3) For example, fresh bacteria cultures of the bacteria E. coli, e.g. E. coli ATCC 11229, and S. aureus, e.g. S. aureus strains DSMZ 346, were prepared by inoculation of 3 ml liquid growth media (tryptic soy broth, e.g. Fluka Cat. No. 22092) from a stock culture and incubation for 16 to 20 h at 30° C. with agitation at 150 rotations per minutes (rpm) leading to a cell density of approximately 2×10^8 cells/ml. Fresh cultures of resistant bacteria, adapted to the conditions in biocide containing CaCO3 slurries, were prepared by inoculation of 50 g 75 wt.-% solid content CaCO3 slurry from a stock culture and incubated for 14 to 28 days at 30° C. without agitation.
(§4) Lithium ions were added to the aqueous preparation (e.g. CaCO3 slurry) by the addition of a water soluble lithium salt. For example to 50 g CaCO3 slurry with a solid content of 75% (w/w) 1.177 ml of a 74 g/Li2CO3 suspension was added and mixed well leading to a lithium ion concentration of 172 mM or 1205 ppm in the water phase. As another example to 50 g CaCO3 slurry with a solid content of 75 wt.-% (w/w) 0.04 ml of a 292 g/L Li3Citrate (2M) solution was added and mixed well leading to a lithium ion concentration of 19 mM or 135 ppm in the water phase.
(§5) The biocide to be tested was added to the aqueous preparation (e.g. CaCO3 slurry with or without lithium ions) in increasing concentrations starting from 0 ppm (without biocide). The concentrations ranged from concentrations higher than recommended by the supplier, to very low amounts (as low as 1 ppm or lower). Of each biocide concentration a 3 ml sample of aqueous preparation was combined with 20 μl fresh bacterial culture.
(§6) All samples were incubated at 30° C. for 24 h. After incubation colony forming units (cfu) per plate (cfu/plate) were determined as described above under bacterial count.
(§7) The MIC for bacteria is defined as the lowest concentration of biocide in the presence or absence of lithium ion amongst all samples tested, where the bacterial concentration dropped below 100 cfu/plate. The MIC for yeast and mould is defined as the lowest concentration of biocide in the presence or absence of lithium ion amongst all samples tested, where the microbial concentration dropped below 20 cfu/plate.

[2] = tested on: bacterial strain rOmyAK; assay: microbe, parasite or virus in culture; format: cell-based, Pseudomonas mendocina; settings: for bacterial count: rOmy AK; for MIC ratio (MICwithout Li/MICLi) / MIC active/aequeous: rOmyAK
Method: as §1, §2, §3, §4, §5, §6, §7

[3] = tested on: E. coli strain ATCC11229; assay: MIC determination / bacterial count in CaCO3 slurry with or without lithium ions; format: cell-based; settings: E. coli; Li^+ 197 mM (1380 ppm), Li2CO3
Method: as §1, §2, §3, §4, §5, §6, §7

[4] = tested on: S. aureus strain DSMZ 346; assay: as above; format: cell-based; settings: S. aureus; Li^+ 329 mM (2305 ppm), Li2CO3
Method: as §1, §2, §3, §4, §5, §6, §7

For `Cn1sccc1=O` [MIT, 2-Methyl-2H-isothiazolin-3-one], the “MIC ratio (MICwithout Li/MICLi)” value [1] was 1.67, the bacterial count ([2]; 18 ppm MIT, 329 mM Li^+) was no less than 100 cfu/plate and the bacterial count ([2]; 18 ppm MIT, no Li^+) was no less than 1000 cfu/plate. It also gave a bacterial count ([2]; 35 ppm MIT, 329 mM Li^+) of 68 cfu/plate, a bacterial count ([2]; 35 ppm MIT, no Li^+) of no less than 100 cfu/plate and a bacterial count ([2]; 106 ppm MIT, 329 mM Li^+) of 0 cfu/plate. The bacterial count ([2]; 106 ppm MIT, no Li^+) was 0 cfu/plate, the “MIC ratio (MICwithout Li/MICLi)” value ([2]; Li^+ 197 mM (1380 ppm), Li2CO3) was 1 and the MIC active/aequeous ([2]; Li^+ 329 mM (2305 ppm), Li2CO3) was 35 ppm. For the same compound, the “MIC ratio (MICwithout Li/MICLi)” value ([2]; Li^+ 329 mM (2305 ppm), Li2CO3) was 3, the “MIC ratio (MICwithout Li/MICLi)” value ([2]; Li^+ 423 mM (2964 ppm), Li2CO3) was 6 and the MIC active/aequeous ([2]; no Li^+) was 106 ppm. For the same compound, the “MIC ratio (MICwithout Li/MICLi)” value [3] was greater than 2.5 and the “MIC ratio (MICwithout Li/MICLi)” value [4] was greater than 5.
